Columns and labels:
[1] = system: MDA-MB-231 cells; experiment: MTT proliferation assay; type: cell-based, human; details: B2R shRNA knockdown MDA-MB-231 cells vs scrambled shRNA
Method: (§1) Cell proliferation assay on MDA-MB-231 cells was determined with colorimetric MTT as we described. Briefly, cells were seeded in a 96 wells plate at 2,000 cells/well in DMEM media supplemented with 10% FBS for 24h at 37°C. Cells were then incubated with and without the B2RAs at the indicated concentrations for the time shown. At the end of treatment period, MTT (0.25 mg/ml) was added to the cells and incubated for 1h30 at 37°C. Thereafter, the cell medium was removed, the formazan product solubilized in acidified isopropanol (100 µl of 1N HCl/anhydrous isopropanol 1:25) and the absorbance determined at 570 nm with an ELISA microplate reader (Spectra Max Plus, Molecular Devices, Sunnyvale, CA). For assessing the cytotoxicity of B2RAs and chemotherapeutic agents (carmustine, doxorubicin, carboplatin, temozolomide and paclitaxel), cells were grown to confluency in multi-well plates and exposed to starving media (DMEM without FBS) for 24h before beginning of the antagonist treatment. Cells were then incubated with MTT and treated exactly as described above. Cell viability was expressed as a percentage of optical density (OD) values obtained upon treatment relative to control.

[2] = system: MDA-MB-231 cells; experiment: MTT cytotoxicity (cell viability) assay; type: cell-based, human; details: MTT assay after 72h drug exposure; means ± s.e.m., n = 6 to 8; read-out: IC50 values (cytocidal activity)
Method: as §1

[3] = molecular target: T1, human B2R (Homo sapiens, UniProt P30411); details: living adherent HEK-293T cells transiently transfected with hB2R; means ± s.e.m.; ref [34]; read-out: Binding hB2R-HEK293T IC50; cited from earlier work
T1 construct: expressed in transfected cells; host or cells: HEK-293T
T1 sequence (P30411 1-391): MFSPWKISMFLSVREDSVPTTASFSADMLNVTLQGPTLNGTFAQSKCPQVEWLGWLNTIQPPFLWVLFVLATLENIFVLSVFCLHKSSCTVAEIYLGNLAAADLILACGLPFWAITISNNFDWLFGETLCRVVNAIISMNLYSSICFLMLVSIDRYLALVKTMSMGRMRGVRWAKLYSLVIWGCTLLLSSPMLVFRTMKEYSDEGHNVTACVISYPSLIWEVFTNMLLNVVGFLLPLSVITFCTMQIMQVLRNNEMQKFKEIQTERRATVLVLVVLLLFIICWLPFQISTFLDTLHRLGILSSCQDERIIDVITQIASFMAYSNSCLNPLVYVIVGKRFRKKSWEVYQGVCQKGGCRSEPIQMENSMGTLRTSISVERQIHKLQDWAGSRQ

[4] = molecular target: T2, B2R endogenously expressed in the human de-endothelized umbilical veins (Homo sapiens, UniProt P30411); details: antagonist, reduction of BK submaximal contraction; means ± s.e.m.; ref [34]; read-out: Bioassay hUV IC50; cited from earlier work
T2 construct: B2R endogenously expressed in the human de-endothelized umbilical veins (hUV); from tissue; host or cells: human umbilical vein, de-endothelized
T2 sequence (P30411 1-391): T1 sequence (P30411 1-391)

[5] = system: MDA-MB-231 cells; experiment: cDNA SuperArray Human Signal Transduction Pathway Finder analysis; type: cell-based; details: 10 μM / 3h, relative to untreated controls
Source text: cDNA SuperArray analysis manufacturer ’s instructions (SuperArray Bioscience). For cDNA microarray analysis, equal amounts of cRNA (3
The GEArray Q-series array of Human Signal µg) were biotinylated, then the probes were hybridized Transduction Pathway Finder (catalog OHS-014; onto the membranes containing specific genes for several SuperArray Bioscience) was used to quantify the transduction pathways. After extensive washing, specific expression of 113 genes representative of 18 signal hybridization onto the membranes was detected by transduction pathways. […] A […]
cells were incubated or not with FR173657 (10 µM) in fold change cutoff of ≥1.5 as compared to control cells DMEM for 3 hours at 37°C. At the end of treatments, cells was set to identify regulated genes. were collected, lysed and total RNA was purified using an ArrayGrade Total RNA Isolation kit according to the Supplementary Table 1: Marked gene expression changes in FR173657-treated MDA-MB-231 cells relative to untreated controls
Description GenBank acc. Symbol Fold change
NLR family, apoptosis inhibitory protein NM_004536 NAIP 1,50
Cyclin-dependent kinase inhibitor 1B (p27, Kip1) NM_004064 CDKN1B 1,70
Cyclin-dependent kinase inhibitor 2B (p15, inhibits CDK4) NM_004936 CDKN2B 1,80 Cyclin-dependent kinase inhibitor 2C (p18, inhibits CDK4) NM_078626 CDKN2C 2,20 Caudal type homeobox transcription factor 1 NM_001804 CDX1 1,80
CCAAT/enhancer binding protein (C/EBP), beta NM_005194 CEBPB 1,70 […]
Platelet/endothelial cell adhesion molecule (CD31 antigen) NM_000442 PECAM1 3,90 Nitric oxide synthase 2A (inducible, hepatocytes) NM_000625 NOS2A –1,50 […]
Overall, the data generated from the transcriptional profiling study are, in general, in good agreement with the strong anticancer activity of FR173657 observed in MDA-MB-231 cells.

[6] = system: MDA-MB-231 cells; experiment: Anchorage-dependent clonogenic assay; type: cell-based, human; details: 1 to 100 µM (FR173657 up to 25 µM), 10-14 days
Method: MDA-MB-231 cells were plated at 200 cells/well in a six-well dish in 2 ml DMEM medium containing 10% FBS. […] After 10 to 14 days, colonies were fixed and stained with 0.5% methylene blue in 50% ethanol. Excess of staining solution was removed carefully with tap water and the plates were dried overnight. Colony counting and densitometric analyses (to measure total colony numbers and surface areas) were performed using the Image Pro Plus 5.1 software.

Structure (SMILES): CC(=O)Nc1ccc(/C=C/C(=O)NCC(=O)N(C)c2ccc(Cl)c(COc3cccc4ccc(C)nc34)c2Cl)cn1 [FR 173657]
- cytostatic activity after B2R downregulation [1]: significantly attenuated
- IC50 [2]: 20000 ± 1000 nM
- IC50 [3]: 37 ± 1.6 nM
- IC50 [4]: 6 ± 0.8 nM
- Fold change BMP4 gene expression [5]: 1,50 fold
- Fold change CCL20 gene expression [5]: 1,50 fold
- Fold change CDKN1B (p27, Kip1) gene expression [5]: 1,70 fold
- Fold change CDKN2B gene expression [5]: 1,80 fold
- Fold change CDKN2C gene expression [5]: 2,20 fold
- Fold change CDX1 gene expression [5]: 1,80 fold
- Fold change CEBPB gene expression [5]: 1,70 fold
- Fold change CTSD gene expression [5]: 1,60 fold
- Fold change CXCL9 gene expression [5]: 1,70 fold
- Fold change EGR1 gene expression [5]: 1,60 fold
- Fold change HOXB1 gene expression [5]: 1,60 fold
- Fold change MMP10 gene expression [5]: 3,50 fold
- Fold change NAIP gene expression [5]: 1,50 fold
- Fold change NOS2A gene expression [5]: –1,50 fold
- Fold change PECAM1 gene expression [5]: 3,90 fold
- Fold change TFRC gene expression [5]: –1,50 fold
- colony formation (antagonist effect) [6]: concentration-responsive clonal repression
